Measured values as given in article PMC12340956, “Tranylcypromine-Based LSD1 Inhibitors as Useful Agents to Reduce Viability of” (ACS Infectious Diseases, 2025).

How the values were obtained:
adult worms = assay: Adult worm viability phenotypic assay, 72 h; settings: Schistosoma mansoni, read-out: IC50 (adult worm viability)
[1] = target: T1, human LSD1-CoREST complex (Homo sapiens, UniProt O60341); assay: ThermoFAD thermal stability assay; format: binding; settings: LSD1-CoREST thermal stability
T1 construct: made in house
Experimental: Compounds 14–22 were tested against the human LSD1-CoREST complex to determine their inhibitory activity. […] ThermoFAD assays were then performed to assess the impact of 14–22 on the thermal stability (ΔT m values, Table ) of the LSD1-CoREST complex. The most significant shifts in Tm values corresponded to the strongest binders. […] Compound 22 was not tested, considering its previous negative results.
Protein expression, thermal stability, and inhibition of human LSD1-CoREST were performed using established protocols. […] LSD1-CoREST (0.4 μM) was preincubated with the inhibitor at 25 °C for 10 min in the presence of 5% DMSO. The reaction was initiated by adding an equal volume of the substrate solution to the enzyme–inhibitor mixture, and resorufin fluorescence (excitation at 530–570 nm and emission at 580–590 nm) was detected with a Clariostar plate reader.

[2] = target: T1, human LSD1-CoREST complex; assay: HRP-coupled LSD1 inhibition assay; format: biochemical; settings: 10 min preincubation; for IC50: read-out: IC50 (hLSD1 direct inhibition)
Experimental: Protein expression, thermal stability, and inhibition of human LSD1-CoREST were performed using established protocols. […] The reaction was initiated by adding an equal volume of the substrate solution to the enzyme–inhibitor mixture, and resorufin fluorescence (excitation at 530–570 nm and emission at 580–590 nm) was detected with a Clariostar plate reader.

[3] = test system: newly transformed schistosomula (NTS); assay: NTS viability phenotypic screening, 72 h; settings: for IC50: Schistosoma mansoni, read-out: IC50 (NTS viability)

SMILES	IC50 (adult worms) [µM]	ΔTm [1]	IC50 [2] [µM]	Percentage of reduction of NTS viability, 72 h ([3]; 10 μM) [%]	Percentage of reduction of NTS viability, 72 h ([3]; 20 μM) [%]	IC50 [3] [µM]	IC50 (hLSD1 direct inhibition) [2]
C#Cc1cccc(C(=O)Nc2ccc(C3CC3N)cc2)c1.Cl (stereo not shown) [Compound 16, N-(4-(2-Aminocyclopropyl)phenyl)-3-ethynylbenzamide Hydrochloride]	> 20	+10 °C	0.07 ± 0.02	31.2 ± 6.3	77.8 ± 2.1	> 10	
Cl.NC1CC1c1ccc(NC(=O)c2ccc(C#Cc3ccccc3)cc2)cc1 (stereo not shown) [Compound 20, N-(4-(2-Aminocyclopropyl)phenyl)-4-(phenylethynyl)benzamide Hydrochloride]	> 20	+8 °C	4.02 ± 0.41	29.2 ± 0.0	77.8 ± 2.1	> 10	single-digit μM inhibition
